ChEMBL document CHEMBL1157542, “Design and synthesis of potent and selective BACE-1 inhibitors” (J Med Chem, 2010)

What was measured:
[1] = molecular target: Cathepsin D (Homo sapiens, UniProt P07339)
Description: Inhibition of human liver cathepsin D

[2] = molecular target: Beta-secretase 1 (Homo sapiens, UniProt P56817); assay: biochemical
Beta-secretase 1, sequence (P56817 whole entry): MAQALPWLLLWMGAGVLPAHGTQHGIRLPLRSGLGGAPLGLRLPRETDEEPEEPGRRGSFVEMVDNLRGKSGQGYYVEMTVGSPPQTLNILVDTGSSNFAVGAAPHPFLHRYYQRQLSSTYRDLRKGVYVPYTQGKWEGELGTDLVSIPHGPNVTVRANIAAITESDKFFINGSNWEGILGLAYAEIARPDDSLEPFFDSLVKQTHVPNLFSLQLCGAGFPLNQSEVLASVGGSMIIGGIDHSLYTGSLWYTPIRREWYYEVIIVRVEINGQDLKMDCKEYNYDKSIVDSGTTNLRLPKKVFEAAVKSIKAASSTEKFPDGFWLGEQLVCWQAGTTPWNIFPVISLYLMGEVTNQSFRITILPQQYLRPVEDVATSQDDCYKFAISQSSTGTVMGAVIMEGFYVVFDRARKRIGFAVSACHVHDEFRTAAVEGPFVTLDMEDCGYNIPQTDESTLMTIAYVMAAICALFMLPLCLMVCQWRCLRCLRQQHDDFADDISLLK
Description: Inhibition of human BACE1 expressed in Escherichia coli cells (BL21(DE3) by TRF assay

Cathepsin D, sequence (P07339 65-162 limits assumed): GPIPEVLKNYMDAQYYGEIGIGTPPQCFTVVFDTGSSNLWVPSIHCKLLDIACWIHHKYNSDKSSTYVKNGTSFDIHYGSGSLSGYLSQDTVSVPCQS
Cathepsin D, sequence (P07339 169-412 limits assumed): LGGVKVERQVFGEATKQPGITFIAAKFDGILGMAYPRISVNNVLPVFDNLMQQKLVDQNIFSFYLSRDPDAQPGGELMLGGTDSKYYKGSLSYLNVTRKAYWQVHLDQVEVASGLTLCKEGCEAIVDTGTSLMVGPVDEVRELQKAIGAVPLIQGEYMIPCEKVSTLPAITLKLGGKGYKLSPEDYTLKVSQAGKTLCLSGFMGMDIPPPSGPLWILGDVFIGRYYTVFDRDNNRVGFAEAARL

Compound	Ki [1] [µM]	Ki [2] [µM]
CCCN(CCC)C(=O)c1cccc(C(=O)N[C@@H](COCc2cc(F)cc(F)c2)[C@@H](O)C[C@@H](OC)C(=O)NC2CC2)c1		> 10
CO[C@H](C[C@H](O)[C@H](COCc1ccc(Br)cc1)NC(=O)c1cc(C(=O)N[C@H](C)c2ccccc2)cc(N(C)CS(C)(=O)=O)c1)C(=O)N[C@H](C(=O)NCc1ccccc1)C(C)C		0.06
CO[C@H](C[C@H](O)[C@H](COc1ccc(Br)cc1)NC(=O)c1cc(C(=O)N[C@H](C)c2ccccc2)cc(N(C)CS(C)(=O)=O)c1)C(=O)N[C@H](C(=O)NCc1ccccc1)C(C)C	0.84	0.075
CO[C@H](C[C@H](O)[C@H](COc1ccccc1)NC(=O)c1cc(C(=O)N[C@H](C)c2ccccc2)cc(N(C)CS(C)(=O)=O)c1)C(=O)N[C@H](C(=O)NCc1ccccc1)C(C)C	0.46	0.009
CO[C@H](C[C@H](O)[C@H](COc1cc(F)cc(F)c1)NC(=O)c1cc(C(=O)N[C@H](C)c2ccccc2)cc(N(C)CS(C)(=O)=O)c1)C(=O)NC1CC1	> 5	1.8
CCCN(CCC)C(=O)c1cccc(C(=O)N[C@@H](COc2cc(F)cc(F)c2)[C@@H](O)C[C@@H](OC)C(=O)NC2CC2)c1		0.22

Results, then the molecule that gave them:

Ki [1] [µM]	Ki [2] [µM]	Compound
> 5	0.2	CO[C@H](C[C@H](O)[C@H](COc1cc(F)cc(F)c1)NC(=O)c1cc(C(=O)N[C@H](C)c2ccccc2)cc(N(C)CS(C)(=O)=O)c1)C(=O)Nc1ccccc1
> 5	0.1	CO[C@H](C[C@H](O)[C@H](COc1cc(F)cc(F)c1)NC(=O)c1cc(C(=O)N[C@H](C)c2ccccc2)cc(N(C)CS(C)(=O)=O)c1)C(=O)Nc1ccc(F)cc1
1.1	< 0.001	CO[C@H](C[C@H](O)[C@H](COc1cc(F)cc(F)c1)NC(=O)c1cc(C(=O)N[C@H](C)c2ccccc2)cc(N(C)CS(C)(=O)=O)c1)C(=O)N[C@H](C(=O)NCc1ccccc1)C(C)C
> 5	1.4	CO[C@H](C[C@H](O)[C@H](COc1cc(F)cc(F)c1)NC(=O)c1cc(C(=O)N[C@H](C)c2ccccc2)cc(N(C)CS(C)(=O)=O)c1)C(=O)NCc1ccccc1
	0.08	CO[C@H](C[C@H](O)[C@H](COCc1cc(F)cc(F)c1)NC(=O)c1cc(C(=O)N[C@H](C)c2ccccc2)cc(N(C)CS(C)(=O)=O)c1)C(=O)N[C@H](C(=O)NCc1ccccc1)C(C)C
> 5	0.4	CO[C@H](C[C@H](O)[C@H](COc1cc(F)cc(F)c1)NC(=O)c1cc(C(=O)N[C@H](C)c2ccccc2)cc(N(C)CS(C)(=O)=O)c1)C(=O)NCC(C)C
